System: MDA-MB-435 TRAIL sensitization, ATPlite luminescence, 24 h
Assay: PubChem AID 2619

Q: For `CSc1nc(-c2ccc(C)cc2)nc(C(Cl)Cl)n1`, which cytotoxicity with TRAIL (at 10 µM (top of the series)) is on record?
A: 82%

Q: What about the cytotoxicity (compound alone without TRAIL, at 10 µM, stronger effect = higher value) of the same compound?
A: 1%
